Each structure is given as a SMILES string.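 Exposure lasted 48 hours, with cells grown in 96-well plates and compounds tested at five concentrations. GI50 = concentration required for 50% inhibition of growth.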 Active and inactive are the calls of the source. Cut-off read from the data, not from the text of the source: active = GI50 up to about 1.1 µM and inactive = higher. Some results are limits rather than exact numbers.

Among the test systems are A549; ACHN; COLO 205; DMS-273; EKVX; HT-29; K562; LOX IMVI; M14; MOLT-4; OVCAR-4; SN12C; SNB-19; SNB-75; SW-620; U-251; UACC-62; UO-31; Malme-3M; SK-MEL-2.
Common to all, as to test: inhibition of tumour cell growth, NCI panel, 48 h

For the molecule `COc1cc(C2C(C(=O)O)=C(CO)Oc3cc4c(cc32)OCO4)cc(OC)c1OC` (stereo unspecified), the GI50 in the test with A549, in the test on ACHN, in the test with COLO 205, with DMS-273, with EKVX and in the test on HT-29 was > 100 µM (inactive) in each case. Further, the GI50 in the test on K562, in the test on LOX IMVI, in the test with M14, in the test with MOLT-4, in the test on OVCAR-4 and in the test with SN12C was > 100 µM (inactive) in each case. Moreover, the GI50 in the test with SNB-19 is > 100 µM (inactive); in the test with SNB-75 it was 40.7 µM (inactive); in the test with SW-620 it was > 100 µM (inactive); in the test on U-251, > 100 µM (inactive); in the test on UACC-62, > 100 µM (inactive); in the test with UO-31, > 100 µM (inactive).

With `C=C1C(=O)OC2C1CC1OC2C(C)CCC/C(C)=C\CCC1(C)O` (stereo unspecified), the GI50 with A549 is 29.7 µM (inactive); in the test with COLO 205, 15.8 µM (inactive); in the test on DMS-273, 16.2 µM (inactive); in the test with EKVX it was 20.4 µM (inactive); with HT-29, 30.3 µM (inactive); in the test on K562, 12.7 µM (inactive). Also, the GI50 was 6.55 µM (inactive) in the test on LOX IMVI; 8.15 µM (inactive) in the test with MOLT-4; 32.7 µM (inactive) with Malme-3M; 18.2 µM (inactive) with OVCAR-4; 10.8 µM (inactive) with SK-MEL-2; 19.5 µM (inactive) with SN12C. Also, the GI50 with SNB-19 was 49.1 µM (inactive); with SNB-75, 15.3 µM (inactive); in the test on SW-620 it was 10.9 µM (inactive); in the test with U-251, 41.3 µM (inactive); with UACC-62 it was 9.04 µM (inactive); in the test with UO-31 it was 32.3 µM (inactive).

For the molecule `COC1=CC(=O)C=C(OC)C1=O` [2,6-DIMETHOXYQUINONE], the GI50 in the test on A549 is 57.1 µM (inactive); in the test on COLO 205, 12.6 µM (inactive); in the test with DMS-273, 36.1 µM (inactive); in the test on EKVX, 5.69 µM (inactive); in the test with HT-29, 27.4 µM (inactive); with K562 it was 7.1 µM (inactive). Besides, the GI50 is 5.14 µM (inactive) in the test with LOX IMVI; 1.49 µM (inactive) in the test with MOLT-4; 20.2 µM (inactive) in the test on Malme-3M; 7.43 µM (inactive) in the test on OVCAR-4; 6.55 µM (inactive) in the test on SK-MEL-2; 15.6 µM (inactive) in the test with SN12C. The GI50 was 13.6 µM (inactive) with SNB-19; 27.9 µM (inactive) in the test on SNB-75; 6.37 µM (inactive) in the test on SW-620; 31.6 µM (inactive) in the test with U-251; 5.33 µM (inactive) in the test with UACC-62; 23.6 µM (inactive) in the test on UO-31.

Turning to `CCN(CC)CCCNc1ncc(C)c2[nH]c3ccncc3c12`, the GI50 is 4.91 µM (inactive) in the test with A549; 4.13 µM (inactive) with COLO 205; 7.26 µM (inactive) in the test on DMS-273; 16.1 µM (inactive) in the test on EKVX; 4.22 µM (inactive) in the test on HT-29; 14.8 µM (inactive) with K562. The GI50 was 3.64 µM (inactive) with LOX IMVI; 2.65 µM (inactive) in the test with MOLT-4; 10.3 µM (inactive) in the test with Malme-3M; 4.5 µM (inactive) in the test on OVCAR-4; 10.5 µM (inactive) with SK-MEL-2; 4.88 µM (inactive) with SN12C. Also, the GI50 in the test with SNB-19 is 15.1 µM (inactive); in the test with SNB-75 it was 12.4 µM (inactive); with SW-620, 4.71 µM (inactive); with U-251, 7.21 µM (inactive); in the test with UACC-62 it was 8.99 µM (inactive); with UO-31 it was 28.1 µM (inactive).

Take `COc1cc(C2c3cc4c(cc3[C@@H](Nc3cnc5ccccc5c3)C3COC(=O)[C@H]23)OCO4)cc(OC)c1O` (stereo partly specified): the GI50 in the test with A549 is < 0.01 µM (active); with COLO 205, 1.28 µM (inactive); with DMS-273, 0.047 µM (active); in the test with EKVX, 1.27 µM (inactive); in the test on HT-29, 0.634 µM (active); in the test with K562, 0.649 µM (active). Also, the GI50 in the test on LOX IMVI was 0.37 µM (active); in the test with MOLT-4, < 0.01 µM (active); in the test with Malme-3M it was 0.621 µM (active); in the test with OVCAR-4, 1.05 µM (active); in the test with SK-MEL-2 it was 1.76 µM (inactive); in the test on SN12C it was 0.338 µM (active). Also, the GI50 was 0.221 µM (active) in the test with SNB-19; 0.478 µM (active) in the test with SNB-75; 0.296 µM (active) in the test on SW-620; 0.238 µM (active) in the test with U-251; 0.301 µM (active) with UACC-62; 0.275 µM (active) in the test with UO-31.

With `CCCCCCCCCCCC[N+](CCCCCCCCCCCC)=C1SCCS1`, the GI50 was 4.78 µM (inactive) in the test with A549; 12.5 µM (inactive) in the test with ACHN; 8.04 µM (inactive) in the test on COLO 205; 3.44 µM (inactive) in the test with DMS-273; 13.1 µM (inactive) in the test with EKVX; 3.36 µM (inactive) in the test with HT-29. The GI50 with LOX IMVI was 1.97 µM (inactive); with M14 it was 10.5 µM (inactive); in the test with MOLT-4, 2.98 µM (inactive); in the test with Malme-3M, 6.64 µM (inactive); with OVCAR-4, 3.6 µM (inactive); with SK-MEL-2 it was 10.7 µM (inactive). Besides, the GI50 in the test with SN12C is 3.92 µM (inactive); with SNB-75, 16 µM (inactive); with SW-620, 3.29 µM (inactive); in the test on U-251, 3.26 µM (inactive); with UACC-62 it was 10.8 µM (inactive); in the test with UO-31, 13.4 µM (inactive).

Turning to `COc1ccc2c(c1)c1cc(OC)ccc1n2CCCCOc1ccc(-c2c3ccccc3c(-c3ccc(OCCCCn4c5ccc(OC)cc5c5cc(OC)ccc54)cc3)c3ccccc23)cc1`, the GI50 in the test on A549, with ACHN, in the test with COLO 205, with DMS-273, in the test on EKVX and in the test with K562 was > 100 µM (inactive) throughout. The GI50 with LOX IMVI, with M14, with MOLT-4, in the test with Malme-3M, in the test with OVCAR-4 and with SK-MEL-2 was > 100 µM (inactive) in each case. In addition, the GI50 in the test on SN12C, in the test with SNB-19, in the test on SNB-75, in the test with SW-620, in the test with UACC-62 and with UO-31 was > 100 µM (inactive) in each case.

Take `COc1ccc(C(=O)/C(Br)=C/C(=O)O)cc1`: the GI50 was 40.2 µM (inactive) in the test with A549; 55 µM (inactive) in the test on ACHN; 18.7 µM (inactive) with COLO 205; 9.82 µM (inactive) with DMS-273; 37.8 µM (inactive) with EKVX; 76.7 µM (inactive) in the test on HT-29. In addition, the GI50 was 29.5 µM (inactive) with K562; 20.5 µM (inactive) in the test with LOX IMVI; 26.2 µM (inactive) in the test on M14; 17.6 µM (inactive) in the test with MOLT-4; 14.8 µM (inactive) in the test with Malme-3M; 32.7 µM (inactive) with OVCAR-4. The GI50 in the test with SK-MEL-2 was 9.48 µM (inactive); in the test on SN12C it was 37.8 µM (inactive); in the test with SNB-19 it was 77.6 µM (inactive); in the test with SNB-75, 35.5 µM (inactive); with U-251 it was 15.6 µM (inactive); in the test with UACC-62, 7.91 µM (inactive). Also, the GI50 in the test on UO-31 was 37.2 µM (inactive).

As to `O=NN(CCCl)C(=O)N[C@H]1CCCC[C@@H]1Cl`, the GI50 was 61.5 µM (inactive) in the test on A549; 57.7 µM (inactive) in the test with ACHN; > 100 µM (inactive) in the test with COLO 205; 62.7 µM (inactive) in the test on DMS-273; > 100 µM (inactive) in the test with EKVX; 79.6 µM (inactive) in the test on HT-29. The GI50 in the test with K562 is 55.8 µM (inactive); with M14, > 100 µM (inactive); with MOLT-4, 32.4 µM (inactive); in the test on Malme-3M it was > 100 µM (inactive); with OVCAR-4, > 100 µM (inactive); with SK-MEL-2, > 100 µM (inactive). For the same molecule, the GI50 in the test with SN12C was 88.1 µM (inactive); with SNB-19, > 100 µM (inactive); with SNB-75, 47 µM (inactive); in the test on SW-620, > 100 µM (inactive); in the test with U-251, 30.4 µM (inactive); in the test with UO-31 it was > 100 µM (inactive).

For the molecule `CC(=O)C(C(=O)C(=O)Nc1cc(Cl)c(Cl)cc1Cl)c1csc(N)n1` (stereo unspecified), the GI50 in the test on A549, in the test on ACHN, in the test with COLO 205, in the test on DMS-273, in the test on EKVX and in the test on HT-29 was > 100 µM (inactive) each time. Also, the GI50 in the test with K562, with LOX IMVI, in the test with M14, in the test on MOLT-4, in the test on OVCAR-4 and in the test on SK-MEL-2 was > 100 µM (inactive) in each case. In addition, the GI50 with SN12C, with SNB-19, with SNB-75, with SW-620, in the test with U-251 and in the test on UACC-62 was > 100 µM (inactive) throughout. For the same molecule, the GI50 with UO-31 is > 100 µM (inactive).

Take `COC(=O)C1=C(OC(=O)/C=C/c2ccc(Cl)cc2)C(C(=O)OC)[C@@]2(O)[C@@H](C(=O)OC)[C@H](C)C[C@@H]1[C@@H]2C(=O)OC` (stereo partly specified): the GI50 was 23.2 µM (inactive) with A549; 22.2 µM (inactive) with ACHN; 17.1 µM (inactive) in the test with COLO 205; 22.5 µM (inactive) in the test on EKVX; 26.1 µM (inactive) with HT-29; 21.6 µM (inactive) with K562. The GI50 is 13.1 µM (inactive) in the test with LOX IMVI; 23.2 µM (inactive) in the test with M14; 15.8 µM (inactive) in the test with MOLT-4; 11.3 µM (inactive) in the test with Malme-3M; 27.1 µM (inactive) in the test on OVCAR-4; 15.7 µM (inactive) in the test with SK-MEL-2. Besides, the GI50 in the test with SN12C was 19 µM (inactive); in the test on SNB-19, 30.8 µM (inactive); in the test with SNB-75, 25.9 µM (inactive); in the test on SW-620, 28.4 µM (inactive); with U-251, 28.4 µM (inactive); in the test on UACC-62, 17.6 µM (inactive). In the test with UO-31, the GI50 was 27 µM (inactive).

The values are drawn from ChEMBL document CHEMBL1201862, “PubChem BioAssay data set” (2004).
